≈ marks a conversion by molar mass, not a printed value.
Legend:
[1] = biological target: T1, Androgen receptor (Homo sapiens, UniProt P10275); assay: Antagonist activity at androgen receptor in human LNAR cells expressing ARE-PSA-LUC by luminescence analysis in presence of R1881; assay type: functional, cell-based
T1 sequence (P10275 whole entry): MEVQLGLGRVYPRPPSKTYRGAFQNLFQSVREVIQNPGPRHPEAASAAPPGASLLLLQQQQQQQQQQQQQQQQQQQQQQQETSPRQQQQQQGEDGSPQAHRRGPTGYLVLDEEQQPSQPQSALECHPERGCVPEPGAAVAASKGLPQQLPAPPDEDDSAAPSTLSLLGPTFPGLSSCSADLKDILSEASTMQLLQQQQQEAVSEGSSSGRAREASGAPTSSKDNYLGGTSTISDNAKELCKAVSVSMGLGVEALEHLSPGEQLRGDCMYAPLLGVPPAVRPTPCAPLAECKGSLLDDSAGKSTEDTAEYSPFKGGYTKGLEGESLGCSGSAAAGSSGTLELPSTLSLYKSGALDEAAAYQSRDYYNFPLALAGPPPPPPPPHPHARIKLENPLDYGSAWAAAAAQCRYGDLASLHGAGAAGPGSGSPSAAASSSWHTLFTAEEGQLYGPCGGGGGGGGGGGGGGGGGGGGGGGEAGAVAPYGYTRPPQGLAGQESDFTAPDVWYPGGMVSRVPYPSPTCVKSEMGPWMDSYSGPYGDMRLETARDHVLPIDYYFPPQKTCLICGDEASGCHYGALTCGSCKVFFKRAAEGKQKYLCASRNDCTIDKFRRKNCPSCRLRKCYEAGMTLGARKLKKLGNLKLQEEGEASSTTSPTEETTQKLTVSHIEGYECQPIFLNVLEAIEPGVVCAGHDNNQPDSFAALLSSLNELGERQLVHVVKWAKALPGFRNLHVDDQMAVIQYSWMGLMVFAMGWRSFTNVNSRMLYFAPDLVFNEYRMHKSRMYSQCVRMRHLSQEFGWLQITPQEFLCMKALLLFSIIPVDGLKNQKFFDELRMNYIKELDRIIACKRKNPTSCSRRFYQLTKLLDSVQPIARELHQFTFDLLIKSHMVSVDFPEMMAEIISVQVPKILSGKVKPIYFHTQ

[2] = biological target: T2, Androgen receptor (Homo sapiens) (UniProt P10275); assay: Agonist activity at androgen receptor in human LNAR cells expressing ARE-PSA-LUC at 1 uM by luminescence analysis relative to RD-162; assay type: functional, cell-based
T2 sequence (whole entry): T1 sequence (P10275 whole entry)

[3] = Aqueous solubility of the compound; assay type: physicochemical
[4] = biological target: T2, Androgen receptor (Homo sapiens); assay: Antagonist activity at androgen receptor in human LNAR cells expressing ARE-PSA-LUC at 1 uM by luminescence analysis in presence of R1881; assay type: functional, cell-based
[5] = Metabolic stability in human liver microsomes assessed as extraction ratio; assay type: ADME, Microsome; details: read-out: ERH

Structure (SMILES)	IC50 [1] [nM]	fold change (FC) [2]	solubility ([3]; aqueous, read-out: solubility) [µM]	inhibition [4] [%]	solubility ([3]; buffer) [µM]	hepatic extraction ratio [5]
N#Cc1ccc(-n2c(=O)n(Cc3ccccc3)c3ccccc32)cc1C(F)(F)F	170	1.04	< 0.16			
CC(c1ccccc1)n1c(=O)n(-c2ccc(C#N)c(C(F)(F)F)c2)c2ccccc21 (stereo in doubt; (-)-20) [listing 1 of 2 here]		0.833				
N#Cc1ccc(-n2c(=O)[nH]c3ccccc32)cc1C(F)(F)F		6.2	7.9 (≈ 2.4 µg/mL)	60.1		
N#Cc1ncc(-n2c(=O)n(Cc3ccccc3)c3ccccc32)cc1C(F)(F)F		1.04	5.3 (≈ 2.09 µg/mL)	91		
CC(c1ccccc1)n1c(=O)n(-c2ccc(C#N)c(C(F)(F)F)c2)c2ccccc21 (single isomer, unassigned; (+)) [listing 1 of 2 here]	292				4.41 (≈ 1.8 µg/mL)	
CC1(C)C(=O)N(c2ccc(C#N)c(C(F)(F)F)c2)c2ccccc21		1.96		75.7		
Cc1ccc(-n2c(=O)n(-c3ccc(C#N)c(C(F)(F)F)c3)c3ccccc32)cc1		0.88	0.79 (≈ 0.311 µg/mL)	12.6		
CCn1c(=O)n(-c2ccc(C#N)c(C(F)(F)F)c2)c2ccccc21	293	1.08	3.47 (≈ 1.15 µg/mL)			
CNC(=O)c1ccc(-c2ccc3c(c2)C(C)(C)C(=O)N3c2ccc(C#N)c(OC)c2)cc1F	165	0.884	9.7 (≈ 4.3 µg/mL)			< 0.25
CC(c1nc(-c2ccccn2)no1)n1c(=O)n(-c2ccc(C#N)c(Cl)c2)c2ccccc21 (stereo in doubt; (-)-23) [listing 1 of 2 here]		0.945				
CC(c1nc(-c2ccccn2)no1)n1c(=O)n(-c2ccc(C#N)c(Cl)c2)c2ccccc21 (stereo in doubt; (-)-23) [listing 2 of 2 here]	189					
CNC(=O)c1ccc(Cn2c(=O)n(-c3ccc(C#N)c(C(F)(F)F)c3)c3ccccc32)cc1F		1.08	9.9 (≈ 4.64 µg/mL)	72.5		
CC(c1nc(-c2ccccn2)no1)n1c(=O)n(-c2ccc(C#N)c(Cl)c2)c2ccccc21 (single isomer, unassigned; (+)) [listing 1 of 2 here]		0.874				
CC(c1ccccc1)n1c(=O)n(-c2ccc(C#N)c(C(F)(F)F)c2)c2ccccc21 (single isomer, unassigned; (+)) [listing 2 of 2 here]		0.904				
N#CCn1c(=O)n(-c2ccc(C#N)c(C(F)(F)F)c2)c2ccccc21		1.42	18.9 (≈ 6.47 µg/mL)	94.8		
N#Cc1ccc(-n2c(=O)n(Cc3cccnc3)c3ccccc32)cc1C(F)(F)F	389	0.984	2.5 (≈ 0.986 µg/mL)			
COc1cc(N2C(=O)C(C)(C)c3cc(-c4cccnc4OC)ccc32)ccc1C#N	79.6	1.04	9.8 (≈ 3.91 µg/mL)			
CNC(=O)c1ccc(-n2c(=O)n(-c3ccc(C#N)c(C(F)(F)F)c3)c3ccccc32)cc1F		1.44	8.81 (≈ 4 µg/mL)	28.7		
CC(C)n1c(=O)n(-c2ccc(C#N)c(C(F)(F)F)c2)c2ccccc21	373	0.965	9.3 (≈ 3.21 µg/mL)			
N#Cc1ccc(-n2c(=O)n(Cc3ccccc3)c3cccnc32)cc1C(F)(F)F	60.6	1.13	< 0.5			
CNC(=O)c1ccc(-c2ccc3c(c2)C(C)(C)C(=O)N3c2ccc(C#N)c(C(F)(F)F)c2)cc1F	197	0.941	6.25 (≈ 3.01 µg/mL)			0.4
N#Cc1ccc(-n2c(=O)n(Cc3ccccn3)c3ccccc32)cc1C(F)(F)F	301	1.03	12 (≈ 4.73 µg/mL)			
N#Cc1ccc(-n2c(=O)n(Cc3nc(-c4ccccn4)no3)c3ccccc32)cc1Cl	126	0.941	5.9 (≈ 2.53 µg/mL)			
CC(c1nc(-c2ccccn2)no1)n1c(=O)n(-c2ccc(C#N)c(Cl)c2)c2ccccc21 (single isomer, unassigned; (+)) [listing 2 of 2 here]	178		9.45 (≈ 4.19 µg/mL)			
N#Cc1ncc(-n2c(=O)n(Cc3ccccc3)c3cccnc32)cc1C(F)(F)F		1.1	1.7 (≈ 0.672 µg/mL)	96.3		
CC(c1ccccc1)n1c(=O)n(-c2ccc(C#N)c(C(F)(F)F)c2)c2ccccc21 (stereo in doubt; (-)-20) [listing 2 of 2 here]	363		5.58 (≈ 2.27 µg/mL)			
N#Cc1ccc(-n2c(=O)n(Cc3ccccc3)c3ncccc32)cc1C(F)(F)F	588	0.951				

Reference: ChEMBL document CHEMBL2010717, “Design of oxobenzimidazoles and oxindoles as novel androgen receptor antagonists” (Bioorg Med Chem Lett, 2012)
